Laboratory results published in ChEMBL document CHEMBL1201862, “PubChem BioAssay data set” (2004).
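Exposure lasted 48 hours, with cells grown in 96-well plates and compounds tested at five concentrations. GI50 marks 50% less growth.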 The source made the active and inactive calls. Rule as the data show it: active = GI50 up to about 1.1 µM and inactive = higher.

Legend:
Test in all cases: NCI-60 cell line screen, 48 h
[1] = system: NCI-H226
[2] = system: CAKI-1
[3] = system: SW-620
[4] = system: MOLT-4
[5] = system: IGROV-1
[6] = system: UO-31
[7] = system: T47D
[8] = system: A498
[9] = system: MCF7
[10] = system: SK-OV-3
[11] = system: A549
[12] = system: Hs-578T
[13] = system: SR
[14] = system: HCT-15
[15] = system: NCI-H23
[16] = system: MDA-MB-435
[17] = system: NCI-H460
[18] = system: OVCAR-8
[19] = system: EKVX
[20] = system: M14
[21] = system: MDA-N
[22] = system: NCI-H522
[23] = system: LOX IMVI
[24] = system: UACC-62
[25] = system: HT-29
[26] = system: MDA-MB-231
[27] = system: COLO 205
[28] = system: SNB-19
[29] = system: HL-60
[30] = system: TK-10
[31] = system: RPMI-8226
[32] = system: SNB-75
[33] = system: SF-539
[34] = system: SF-268
[35] = system: HOP-62
[36] = system: SN12C
[37] = system: CCRF-CEM
[38] = system: BT-549
[39] = system: UACC-257
[40] = system: PC-3
[41] = system: K562
[42] = system: 786-0
[43] = system: SF-295
[44] = system: KM12
[45] = system: HCC 2998
[46] = system: DU-145
[47] = system: SK-MEL-28
[48] = system: ACHN
[49] = system: HCT-116
[50] = system: SK-MEL-5
[51] = system: Malme-3M
[52] = system: U-251
[53] = system: OVCAR-5
[54] = system: NCI/ADR-RES
[55] = system: OVCAR-3
[56] = system: OVCAR-4

For `COc1cc(C2SC(=N)Nc3c2c(C)nn3C(=O)Cc2ccccc2)ccc1O` (centres undefined), the GI50 [1] was > 100 µM (inactive), the GI50 [2] was > 100 µM (inactive) and the GI50 [3] was > 100 µM (inactive). For the same compound, the GI50 [4] was > 100 µM (inactive), the GI50 [5] was > 100 µM (inactive) and the GI50 [6] was > 100 µM (inactive). For the same compound, the GI50 [7] was > 100 µM (inactive), the GI50 [8] was > 100 µM (inactive) and the GI50 [9] was > 100 µM (inactive). The GI50 [10] was > 100 µM (inactive), the GI50 [11] was > 100 µM (inactive) and the GI50 [12] was > 100 µM (inactive). The GI50 [13] was > 100 µM (inactive), the GI50 [14] was greater than 100 µM and the GI50 [15] was > 100 µM (inactive). For the same compound, the GI50 [16] was > 100 µM (inactive), the GI50 [17] was > 100 µM (inactive) and the GI50 [18] was > 100 µM (inactive). For the same compound, the GI50 [19] was > 100 µM (inactive), the GI50 [20] was > 100 µM (inactive) and the GI50 [21] was > 100 µM (inactive). For the same compound, the GI50 [22] was > 100 µM (inactive), the GI50 [23] was > 100 µM (inactive) and the GI50 [24] was > 100 µM (inactive). For the same compound, the GI50 [25] was > 100 µM (inactive), the GI50 [26] was > 100 µM (inactive) and the GI50 [27] was > 100 µM (inactive). For the same compound, the GI50 [28] was > 100 µM (inactive), the GI50 [29] was > 100 µM (inactive) and the GI50 [30] was > 100 µM (inactive). The GI50 [31] was > 100 µM (inactive), the GI50 [32] was 26.8 µM (inactive) and the GI50 [33] was > 100 µM (inactive). For the same compound, the GI50 [34] was > 100 µM (inactive), the GI50 [35] was > 100 µM (inactive) and the GI50 [36] was > 100 µM (inactive). The GI50 [37] was > 100 µM (inactive), the GI50 [38] was > 100 µM (inactive) and the GI50 [39] was > 100 µM (inactive). For the same compound, the GI50 [40] was > 100 µM (inactive), the GI50 [41] was > 100 µM (inactive) and the GI50 [42] was > 100 µM (inactive). For the same compound, the GI50 [43] was > 100 µM (inactive), the GI50 [44] was > 100 µM (inactive) and the GI50 [45] was > 100 µM (inactive). For the same compound, the GI50 [46] was > 100 µM (inactive), the GI50 [47] was > 100 µM (inactive) and the GI50 [48] was > 100 µM (inactive). For the same compound, the GI50 [49] was > 100 µM (inactive), the GI50 [50] was > 100 µM (inactive) and the GI50 [51] was > 100 µM (inactive).

For `CC(=O)OCCC[C@@H]1C(=C(C)C)CCC2[C@@]1(C)CC[C@@]1(C)C[C@](C)(CCC=C(C)C)CC[C@]21C` (some centres undefined), the GI50 [1] was > 100 µM (inactive), the GI50 [2] was > 100 µM (inactive) and the GI50 [3] was > 100 µM (inactive). The GI50 [4] was > 100 µM (inactive), the GI50 [5] was > 100 µM (inactive) and the GI50 [6] was 13.5 µM (inactive). The GI50 [52] was > 100 µM (inactive), the GI50 [7] was > 100 µM (inactive) and the GI50 [8] was > 100 µM (inactive). The GI50 [9] was > 100 µM (inactive), the GI50 [10] was > 100 µM (inactive) and the GI50 [11] was > 100 µM (inactive). For the same compound, the GI50 [12] was > 100 µM (inactive), the GI50 [14] was greater than 100 µM and the GI50 [15] was > 100 µM (inactive). For the same compound, the GI50 [53] was > 100 µM (inactive), the GI50 [16] was > 100 µM (inactive) and the GI50 [17] was > 100 µM (inactive). For the same compound, the GI50 [18] was > 100 µM (inactive), the GI50 [19] was > 100 µM (inactive) and the GI50 [20] was > 100 µM (inactive). The GI50 [21] was > 100 µM (inactive), the GI50 [22] was > 100 µM (inactive) and the GI50 [24] was > 100 µM (inactive). For the same compound, the GI50 [25] was > 100 µM (inactive), the GI50 [26] was > 100 µM (inactive) and the GI50 [27] was > 100 µM (inactive). The GI50 [28] was > 100 µM (inactive), the GI50 [29] was > 100 µM (inactive) and the GI50 [54] was > 100 µM (inactive). For the same compound, the GI50 [30] was < 0.01 µM (active), the GI50 [31] was > 100 µM (inactive) and the GI50 [32] was 7.94 µM (inactive). The GI50 [33] was > 100 µM (inactive), the GI50 [55] was > 100 µM (inactive) and the GI50 [34] was > 100 µM (inactive). For the same compound, the GI50 [35] was > 100 µM (inactive), the GI50 [36] was > 100 µM (inactive) and the GI50 [37] was > 100 µM (inactive). For the same compound, the GI50 [38] was > 100 µM (inactive), the GI50 [39] was > 100 µM (inactive) and the GI50 [40] was 18.5 µM (inactive). For the same compound, the GI50 [42] was > 100 µM (inactive), the GI50 [43] was > 100 µM (inactive) and the GI50 [44] was > 100 µM (inactive). The GI50 [45] was > 100 µM (inactive), the GI50 [46] was > 100 µM (inactive) and the GI50 [47] was > 100 µM (inactive). The GI50 [56] was > 100 µM (inactive), the GI50 [48] was > 100 µM (inactive) and the GI50 [49] was > 100 µM (inactive). For the same compound, the GI50 [50] was > 100 µM (inactive) and the GI50 [51] was > 100 µM (inactive).
